Results from patent US20240158446A1, “CYCLIC COMPOUND HAVING SELECTIVE INHIBITORY ACTION ON KRAS OVER HRAS AND NRAS” (CHUGAI SEIYAKU KABUSHIKI KAISHA, priority 2021, published 2024).
Read-outs that look alike come from different tables or passages of the source. Where a SMILES comes first, the peptide text is derived from it. Bridges are numbered along the chain shown (N, C = ends). [ ]: non-standard residue; d: D form. The star is where a group is joined. hPhe(3,5-F2-4-CF3) = N[C@@H](CCc1cc(F)c(C(F)(F)F)c(F)c1)C(=O)O; hPhe(3-Cl-4-CF3) = N[C@@H](CCc1ccc(C(F)(F)F)c(Cl)c1)C(=O)O; NPrPhe(4-CF3) = CCCN[C@@H](Cc1ccc(C(F)(F)F)cc1)C(=O)O; NPrPhe(4-Me) = CCCN[C@@H](Cc1ccc(C)cc1)C(=O)O; NMeGly(cPent) = CN[C@H](C(=O)O)C1CCCC1; Pro(4,4-F2) = O=C(O)[C@@H]1CC(F)(F)CN1; Aze(3S-Me) = C[C@H]1CN[C@@H]1C(=O)O; Hyp = O=C(O)[C@@H]1C[C@@H](O)CN1; NMeD = CN[C@@H](CC(=O)O)C(=O)O; NMeL = CN[C@@H](CC(C)C)C(=O)O; Morpholide = C1CN(*)CCO1; NMeA = CN[C@@H](C)C(=O)O; Ac5c = NC1(C(=O)O)CCCC1; Aze = O=C(O)[C@@H]1CCN1; Ac4c = NC1(C(=O)O)CCC1; NEtG = CCNCC(=O)O; Sar = CNCC(=O)O

Columns and labels:
[1] = molecular target: GDP-bound KRAS wild-type protein (Homo sapiens, UniProt P01116); assay: Binding to KRAS by surface plasmon resonance (SPR), Single Cycle Kinetics; conditions: GDP-bound KRAS wild-type protein, read-out: KRAS KD
Sequence of GDP-bound KRAS wild-type protein (P01116 whole entry): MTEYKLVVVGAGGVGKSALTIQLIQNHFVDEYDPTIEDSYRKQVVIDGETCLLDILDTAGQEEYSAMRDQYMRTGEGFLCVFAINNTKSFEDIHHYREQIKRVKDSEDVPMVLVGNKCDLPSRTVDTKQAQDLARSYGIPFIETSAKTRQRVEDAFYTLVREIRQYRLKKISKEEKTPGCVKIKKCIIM

[2] = molecular target: GDP-bound HRAS wild-type protein (Homo sapiens, UniProt P01112); assay: Binding to HRAS by surface plasmon resonance (SPR), Single Cycle Kinetics; conditions: for HRAS/KRAS (ratio of KD value for HRAS to KD value for KRAS) / HRAS/KRAS (ratio of KD value with respect to HRAS to KD value with respect to KRAS): SPR, GDP-bound HRAS wild-type protein vs GDP-bound KRAS wild-type protein
Sequence of GDP-bound HRAS wild-type protein (P01112 whole entry): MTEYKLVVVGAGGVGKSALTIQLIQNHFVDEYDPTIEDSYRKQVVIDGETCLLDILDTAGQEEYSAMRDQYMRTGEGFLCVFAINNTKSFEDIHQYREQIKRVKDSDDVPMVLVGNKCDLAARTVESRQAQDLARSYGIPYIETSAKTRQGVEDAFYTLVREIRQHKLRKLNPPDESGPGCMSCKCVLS

[3] = molecular target: GDP-bound NRAS wild-type protein (Homo sapiens, UniProt P01111); assay: Binding to NRAS by surface plasmon resonance (SPR), Single Cycle Kinetics; conditions: for NRAS/KRAS (ratio of KD value for NRAS to KD value for KRAS) / NRAS/KRAS (ratio of KD value with respect to NRAS to KD value with respect to KRAS): SPR, GDP-bound NRAS wild-type protein vs GDP-bound KRAS wild-type protein
Sequence of GDP-bound NRAS wild-type protein (P01111 whole entry): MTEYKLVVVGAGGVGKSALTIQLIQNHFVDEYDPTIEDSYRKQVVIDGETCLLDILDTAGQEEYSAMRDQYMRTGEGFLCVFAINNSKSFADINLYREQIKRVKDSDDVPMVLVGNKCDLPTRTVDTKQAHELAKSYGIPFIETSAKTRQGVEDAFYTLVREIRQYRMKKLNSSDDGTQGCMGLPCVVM

[4] = SPR Single Cycle Kinetics, 1:1 binding model

SMILES	Kd [1, 4] [nM]	HRAS/KRAS (ratio of KD value for HRAS to KD value for KRAS) [2]	NRAS/KRAS (ratio of KD value for NRAS to KD value for KRAS) [3]	also measured
CCCN1C(=O)[C@@H]2[C@@H](C)CN2C(=O)[C@H](C)N(C)C(=O)[C@H]([C@@H](C)CC)NC(=O)[C@H](CC(C)C)N(C)C(=O)C[C@@H](C(=O)N2CCOCC2)N(C)C(=O)[C@H](C2CCCC2)N(C)C(=O)C2(CCCC2)NC(=O)[C@@H]2CCCN2C(=O)[C@H](CCc2ccc(C(F)(F)F)c(Cl)c2)NC(=O)CN(C)C(=O)[C@@H]1Cc1ccc(C)cc1 [PP0138] ([NMeL]I[NMeA][Aze(3S-Me)][NPrPhe(4-Me)][Sar][hPhe(3-Cl-4-CF3)]P[Ac5c][NMeGly(cPent)][NMeD]-Morpholide; lactam N-11)	0.77	C (A compound having a KD ratio of 0.1 or more and less than 3 is denoted as C)	C (A compound having a KD ratio of 0.1 or more and less than 3 is denoted as C)	–
CCC(CC)[C@H]1C(=O)N(C)[C@H](C(=O)N(C)C)CC(=O)N(C)[C@@H](COC)C(=O)N[C@@H]([C@@H](C)CC)C(=O)N(C)CC(=O)N(C)[C@H]2C/C=C\CCN(C2=O)[C@@H](Cc2ccc(C)cc2)C(=O)N(C)CC(=O)N[C@@H](CCc2cc(F)c(C(F)(F)F)c(F)c2)C(=O)N2CC3(CC3)C[C@H]2C(=O)NC2(CC(C)(C)C2)C(=O)N1C [PP2963]	0.39	–	–	HRAS/KRAS (ratio of KD value with respect to GDP-bound HRAS wild-type protein to KD value with respect to KRAS) ([2]; SPR KD ratio HRAS/KRAS, class symbols): A (a compound having 10 or more and less than 20 is denoted as A); NRAS/KRAS (ratio of KD value with respect to GDP-bound NRAS wild-type protein to KD value with respect to KRAS) ([3]; SPR KD ratio NRAS/KRAS, class symbols): AA (a compound having 20 or more is denoted as AA)
C=CCN1CC(=O)N(C)[C@H]2C/C=C\CCN(C2=O)[C@@H](Cc2ccc(C(F)(F)F)cc2)C(=O)N(C)CC(=O)N[C@@H](CCc2ccc(C(F)(F)F)c(OC)c2)C(=O)N2C[C@H](OCC)C[C@H]2C(=O)NC2(CC(C)(C)C2)C(=O)N(C)[C@@H](C2CCCC2)C(=O)N(C)[C@H](C(=O)N(C)C)CC(=O)N(C)[C@@H](CCC)C(=O)N[C@@H]([C@@H](C)CC)C1=O [PP2106]	–	A (a compound having 10 or more and less than 20 is denoted as A)	A (a compound having 10 or more and less than 20 is denoted as A)	Kd ([1]; SPR, Single Cycle Kinetics): 0.2 nM
CCCN1C(=O)[C@@H]2CCN2C(=O)[C@H](C)N(C)C(=O)[C@H]([C@@H](C)CC)NC(=O)[C@H](CC(C)C)N(C)C(=O)C[C@@H](C(=O)N2CCOCC2)N(C)C(=O)[C@H](C2CCCC2)N(C)C(=O)C2(CCC2)NC(=O)[C@@H]2CC(F)(F)CN2C(=O)[C@H](CCc2ccc(C(F)(F)F)c(Cl)c2)NC(=O)CN(C)C(=O)[C@@H]1Cc1ccc(C(F)(F)F)cc1 [PP0208] ([NMeL]I[NMeA][Aze][NPrPhe(4-CF3)][Sar][hPhe(3-Cl-4-CF3)][Pro(4,4-F2)][Ac4c][NMeGly(cPent)][NMeD]-Morpholide; lactam N-11)	0.26	C (A compound having a KD ratio of 0.1 or more and less than 3 is denoted as C)	C (A compound having a KD ratio of 0.1 or more and less than 3 is denoted as C)	–
CC[C@H](C)[C@@H]1NC(=O)[C@H](CC2CC2)N(C)C(=O)C[C@@H](C(=O)N(C)C)N(C)C(=O)[C@H](C2CCCC2)N(C)C(=O)C2(CC(C)(C)C2)NC(=O)[C@@H]2C[C@@H](C(F)(F)F)CN2C(=O)[C@H](CCc2cc(F)c(C(F)(F)F)c(F)c2)NC(=O)CN(C)C(=O)[C@H](Cc2ccc(C(F)(F)F)cc2)N2CC/C=C\C[C@@H](C2=O)N(C)C(=O)CN(C)C1=O [PP1504]	–	–	–	Kd ([1]; SPR, Single Cycle Kinetics, 1:1 binding model): 0.32 nM; HRAS/KRAS (ratio of KD value for HRAS to KD value for KRAS) ([2]; KD ratio class): A (a compound having 10 or more and less than 20 is denoted as A); NRAS/KRAS (ratio of KD value for NRAS to KD value for KRAS) ([3]; KD ratio class): A (a compound having 10 or more and less than 20 is denoted as A)
CCCN1C(=O)CN(C)C(=O)CN(CC)C(=O)[C@H]([C@@H](C)CC)NC(=O)[C@H](CC(C)C)N(C)C(=O)C[C@@H](C(=O)N2CCOCC2)NC(=O)[C@H](C2CCCC2)N(C)C(=O)C2(CCCC2)NC(=O)[C@@H]2CC(F)(F)CN2C(=O)[C@H](CCc2ccc(C(F)(F)F)c(Cl)c2)NC(=O)CN(C)C(=O)[C@@H]1Cc1ccc(C(F)(F)F)cc1 [PP0333] ([NMeL]I[NEtG][Sar][NPrPhe(4-CF3)][Sar][hPhe(3-Cl-4-CF3)][Pro(4,4-F2)][Ac5c][NMeGly(cPent)]D-Morpholide; lactam N-11)	2.4	C (A compound having a KD ratio of 0.1 or more and less than 3 is denoted as C)	B (a compound having 3 or more and less than 10 is denoted as B)	–
CCCN1C(=O)CN(C)C(=O)CN(C)C(=O)[C@H]([C@@H](C)CC)NC(=O)[C@H](CC(C)C)N(C)C(=O)C[C@@H](C(=O)N(C)C)NC(=O)[C@H](C2CCCC2)N(C)C(=O)C2(CCCC2)NC(=O)[C@@H]2CCCN2C(=O)[C@H](CCc2ccc(C(F)(F)F)c(Cl)c2)NC(=O)CN(C)C(=O)[C@@H]1Cc1ccc(C(F)(F)F)cc1 [PP0355] ([NMeL]I[Sar][Sar][NPrPhe(4-CF3)][Sar][hPhe(3-Cl-4-CF3)]P[Ac5c][NMeGly(cPent)]D-NMe2; lactam N-11)	0.33	B (a compound having 3 or more and less than 10 is denoted as B)	B (a compound having 3 or more and less than 10 is denoted as B)	–
CCO[C@@H]1C[C@H]2C(=O)NC3(CCC3)C(=O)N(C)[C@@H](C3CCCC3)C(=O)N(C)[C@H](C(=O)N(C)C)CC(=O)N(C)[C@@H](CC)C(=O)N[C@@H]([C@@H](C)CC)C(=O)N(C)CC(=O)N(C)[C@H]3CCCCCN(C3=O)[C@@H](Cc3ccc(F)c(Cl)c3)C(=O)N(C)CC(=O)N[C@@H](CCc3cc(F)c(C(F)(F)F)c(F)c3)C(=O)N2C1 [PP0909]	–	B (a compound having 3 or more and less than 10 is denoted as B)	B (a compound having 3 or more and less than 10 is denoted as B)	Kd ([1]; SPR, Single Cycle Kinetics): 0.48 nM
CCCN1C(=O)CN(C)C(=O)CN(C)C(=O)[C@H]([C@@H](C)CC)NC(=O)[C@H](CC(C)C)N(C)C(=O)C[C@@H](C(=O)N2CCOCC2)N(C)C(=O)[C@H](C2CCCC2)N(C)C(=O)C2(CCCC2)NC(=O)[C@@H]2C[C@@H](OC)CN2C(=O)[C@H](CCc2ccc(C(F)(F)F)c(Cl)c2)NC(=O)CN(C)C(=O)[C@@H]1Cc1ccc(C(F)(F)F)cc1 [PP0262] ([NMeL]I[Sar][Sar][NPrPhe(4-CF3)][Sar][hPhe(3-Cl-4-CF3)][Hyp](Me)[Ac5c][NMeGly(cPent)][NMeD]-Morpholide; lactam N-11)	0.044	B (a compound having 3 or more and less than 10 is denoted as B)	B (a compound having 3 or more and less than 10 is denoted as B)	–
CC[C@H](C)[C@@H]1NC(=O)[C@H](CC(C)C)N(C)C(=O)C[C@@H](C(=O)N2CCOCC2)N(C)C(=O)[C@H](C2CCCC2)N(C)C(=O)C2(CCCC2)NC(=O)[C@@H]2CCCN2C(=O)[C@H](CCc2ccc(C(F)(F)F)c(Cl)c2)NC(=O)CN(C)C(=O)[C@H](Cc2ccc(C)cc2)N2CC/C=C\C[C@@H](C2=O)N(C)C(=O)CN(C)C1=O [PP0461]	0.49	–	–	HRAS/KRAS (ratio of KD value with respect to HRAS to KD value with respect to KRAS) [2]: A (a compound having 10 or more and less than 20 is denoted as A); NRAS/KRAS (ratio of KD value with respect to NRAS to KD value with respect to KRAS) [3]: A (a compound having 10 or more and less than 20 is denoted as A)
CCC[C@H]1C(=O)N[C@@H](C2CCCCC2)C(=O)N(C)CC(=O)N(C)[C@H]2C/C=C\CCN(C2=O)[C@@H](Cc2ccc(C(F)(F)F)cc2)C(=O)N(C)CC(=O)N[C@@H](CCc2ccc(C(F)(F)F)c(Cl)c2)C(=O)N2C[C@H](OCC)C[C@H]2C(=O)NC2(CC(C)(C)C2)C(=O)N(C)[C@@H](C2CCCC2)C(=O)N(C)[C@H](C(=O)N(C)C)CC(=O)N1C [PP2996]	–	A (a compound having 10 or more and less than 20 is denoted as A)	AA (a compound having 20 or more is denoted as AA)	Kd ([1]; SPR, Single Cycle Kinetics): 0.36 nM
CCCN1C(=O)[C@@H]2CCN2C(=O)[C@H](C)N(C)C(=O)[C@H]([C@@H](C)CC)NC(=O)[C@H](CC(C)C)N(C)C(=O)C[C@@H](C(=O)N2CCOCC2)NC(=O)[C@H](C2CCCC2)N(C)C(=O)C2(CCCC2)NC(=O)[C@@H]2C[C@@H](OCC)CN2C(=O)[C@H](CCc2ccc(C(F)(F)F)c(Cl)c2)NC(=O)CN(C)C(=O)[C@@H]1Cc1ccc(C(F)(F)F)cc1 [PP0347] ([NMeL]I[NMeA][Aze][NPrPhe(4-CF3)][Sar][hPhe(3-Cl-4-CF3)][Hyp](Et)[Ac5c][NMeGly(cPent)]D-Morpholide; lactam N-11)	0.36	B (a compound having 3 or more and less than 10 is denoted as B)	C (A compound having a KD ratio of 0.1 or more and less than 3 is denoted as C)	–
CCCN1C(=O)CN(C)C(=O)CN(C)C(=O)[C@H]([C@@H](C)CC)NC(=O)[C@H](CC(C)C)N(C)C(=O)C[C@@H](C(=O)N(C)C)N(C)C(=O)[C@H](C2CCCC2)N(C)C(=O)C2(CCCC2)NC(=O)[C@@H]2CCCN2C(=O)[C@H](CCc2cc(F)c(C(F)(F)F)c(F)c2)NC(=O)CN(C)C(=O)[C@@H]1Cc1ccc(C(F)(F)F)cc1 [PP0788] ([NMeL]I[Sar][Sar][NPrPhe(4-CF3)][Sar][hPhe(3,5-F2-4-CF3)]P[Ac5c][NMeGly(cPent)][NMeD]-NMe2; lactam N-11)	0.054	–	–	HRAS/KRAS (ratio of KD value with respect to HRAS to KD value with respect to KRAS) [2]: C (A compound having a KD ratio of 0.1 or more and less than 3 is denoted as C); NRAS/KRAS (ratio of KD value with respect to NRAS to KD value with respect to KRAS) [3]: B (a compound having 3 or more and less than 10 is denoted as B)
